Reference: US12102658B2, “Tripeptide propylene oxide derivative and preparation method and application thereof” (SHENZHEN JIKANG PHARMACEUTICAL TECHNOLOGY CO., LTD, priority 2019, dated 2024)
Read-outs that look alike come from different tables or passages of the source.

Columns and labels:
U266B1 = experiment: Cell strain inhibition activity (Promega single solution cell proliferation test kit), U266; format: cell-based; settings: Homo sapiens, U-266; U266B1 cells, 24 h incubation with drug; read-out: IC50 concentration (nM) of the drugs to cytotoxicity, U266B1
Experimental: (§1) The test solution used in the present invention is a single solution cell proliferation test kit from Promega company; and the cells used are U266 and RPMI8226. The experimental system is 110 μL, containing 90 μL of cell suspension, 10 μL of test solution, and 10 μL of drug (inhibitor). The final concentration is 4.54×10^−8 M-1.77×10^−9 M, the last concentration is 0 M, the actual preparation concentration is 5×10^−7 M-1.95×10^−8 M, and the last concentration is 0 M. The specific experiment process is as follows:
(§2) After the cells are counted separately, dilution and preparation are performed so that the number of U266 is 1×10^4 cells/well, and the number of RPMI8226 is 1×10^4 cells/well.
(§3) 90 μL of cell suspension is added to each well of a 96-well fluorescence microplate, and incubated for 24 h. […] After the reaction is complete, 10 μL of test solution is added to each well and incubation is performed for 2-3 h. The absorbance is tested with a 490 nm fluorescence microplate reader (BMG LABTECH POLARstar OPTIMA Microplate Reader).
(§4) The absorbances of the products obtained under the action of the drugs of different concentrations after subtracting the substrate are calculated. The IC50 concentration (nM) of the drugs to cytotoxicity is calculated by the GraphPad Prism software.

[1] = target: T1, human red blood cell 20S proteasome (Homo sapiens, UniProt P28074); experiment: Proteasome inhibition activity (chymotrypsin-like activity, Suc-LLVY-AMC fluorescent substrate); format: biochemical; settings: Suc-LLVY-AMC 50 μM, 37° C.
T1 construct: human red blood cell 20S proteasome; purchased Enzo; host or cells: purified from human red blood cells
Experimental: The present invention uses a fluorescent polypeptide substrate Suc-Leu-Leu-Val-Tyr-AMC (abbreviated as Suc-LLVY-AMC, Suc stands for succinyl group, AMC stands for 7-amide-4-methylcoumarin) to determine the chymotrypsin-like enzyme activity of the proteasome.
The proteasome used in the present invention is human red blood cell 20S proteasome, and the enzymes, fluorescent substrates and test buffers are all purchased from Enzo company. […]
The 20S proteasome is diluted with a buffer solution to a concentration of 2 ng/μL from 8 ng/μL, and the diluted proteasome solution is added to a 384-well fluorescence microplate, 4 μL each. […] A 360 nm/460 nm fluorescence microplate reader (BMG LABTECH POLARstar OPTIMA Microplate Reader) is used to test the fluorescence value.
The fluorescence values of the products obtained under the action of the drugs of different concentrations after subtracting the substrate are calculated. The IC50 concentration of the drug to inhibit the proteasome is calculated by the GraphPad Prism software.

RPMI8226 = experiment: Cell strain inhibition activity (Promega single solution cell proliferation test kit), RPMI8226; format: cell-based; settings: Homo sapiens, RPMI-8226; RPMI8226 cells, 24 h incubation with drug; read-out: IC50 concentration (nM) of the drugs to cytotoxicity, RPMI8226
Experimental: as §1, §2, §3, §4

[2] = system: CD138+ cells selected from the patients with multiple myeloma; experiment: Primary cytotoxicity, CD138+ cells from patients with multiple myeloma; format: cell-based; settings: Homo sapiens
Experimental: (§5) In the present invention, blood cells from patients with multiple myeloma and blood cells from healthy volunteers are used to test the toxicity of candidate compounds. The test solution is a single solution cell proliferation test kit from Promega company. The cells used are CD138+ cells selected from the patients with multiple myeloma and monocytes from the blood of the healthy volunteers. The experimental system is 110 μL, containing 90 μL of cell suspension, 10 μL of test solution, and 10 μL of drug (inhibitor). The final concentration is 4.54×10^−8 M 1.77×10^−9 M, the last concentration is 0 M, the actual preparation concentration is 5×10^−7 M-1.95×10^−8 M, and the last concentration is 0 M. The specific experiment process is as follows:
(§6) After the cells are counted separately, dilution and preparation are performed so that the number of CD138+ cells is 1×10^4 cells/well, and the number of monocytes is 1×10^4 cells/well.
as §3, §4

[3] = Primary cytotoxicity, monocytes from healthy volunteers; format: cell-based; settings: human, primary blood monocytes from a healthy volunteer, 24 h incubation with drug
Experimental: as §5, §6, §3, §4

[4] = Patient 1, 24 h incubation with drug, read-out: IC50 concentration (nM) of the drugs to cytotoxicity, Patient 1
[5] = Patient 2, 24 h incubation with drug, read-out: IC50 concentration (nM) of the drugs to cytotoxicity, Patient 2
[6] = Healthy volunteer 3 (first line, r4), read-out: IC50 concentration (nM) of the drugs to cytotoxicity, Healthy volunteer 3
[7] = Healthy volunteer 3 (second line, r5), read-out: IC50 concentration (nM) of the drugs to cytotoxicity, Healthy volunteer 3 (second line)

Row | Compound | melting point | also measured
1 | COC[C@H](NC(=O)c1cc(C)on1)C(=O)N[C@H](CSC)C(=O)N[C@@H](CC(C)C)C(=O)[C@@]1(C)CO1 [Compound 31, N-5-methylisoxazolyl-3-formyl-O-methyl-L-seryl-S-methyl-L-cysteinyl-L-leucyl-methyloxirane] | 70.2 to 72.7 °C | –
2 | COC[C@H](NC(=O)c1cnccn1)C(=O)N[C@H](CSC)C(=O)N[C@@H](CC(C)C)C(=O)[C@@]1(C)CO1 [Compound 32, N-pyrazinyl-2-formyl-O-methyl-L-seryl-S-methyl-L-cysteinyl-L-leucyl-methyloxirane] | 50 to 51 °C | IC50 (U266B1): 13700 nM
3 | COC[C@H](NC(=O)c1cc(Cl)ccc1Cl)C(=O)N[C@H](CSC)C(=O)N[C@@H](Cc1ccccc1)C(=O)[C@@]1(C)CO1 [Compound 33, N-2,5-dichlorophenyl-2-formyl-O-methyl-L-seryl-S-methyl-L-cysteinyl-L-phenylalanyl-methyloxirane] | 50.7 to 52.3 °C | –
4 | COC[C@H](NC(=O)c1cnccn1)C(=O)N[C@H](CSC)C(=O)N[C@@H](Cc1ccccc1)C(=O)[C@@]1(C)CO1 [Compound 35, N-pyrazinyl-2-formyl-O-methyl-L-seryl-S-methyl-L-cysteinyl-L-phenylalanyl-methyloxirane] | 46.1 to 47.6 °C | –
5 | COC[C@H](NC(=O)[C@@H](CSC)NC(=O)c1cc(Cl)ccc1Cl)C(=O)N[C@@H](CC(C)C)C(=O)[C@@]1(C)CO1 [Compound 36, N-2,5-dichlorophenyl-2-formyl-S-methyl-L-cysteinyl-O-methyl-L-seryl-L-leucyl-methyloxirane] | 59.8 to 60.3 °C | –
6 | COC[C@H](NC(=O)[C@@H](CSC)NC(=O)c1cc(C)on1)C(=O)N[C@@H](CC(C)C)C(=O)[C@@]1(C)CO1 [Compound 37, N-5-methylisoxazolyl-3-formyl-S-methyl-L-cysteinyl-O-methyl-L-seryl-L-leucyl-methyloxirane] | 49.5 to 51.8 °C | –
7 | COC[C@H](NC(=O)[C@@H](CSC)NC(=O)c1cnccn1)C(=O)N[C@@H](CC(C)C)C(=O)[C@@]1(C)CO1 [Compound 38, N-pyrazinyl-2-formyl-S-methyl-L-cysteinyl-O-methyl-L-seryl-L-leucyl-methyloxirane] | 59.6 to 61.2 °C | IC50 [1]: > 2000 nM
8 | COC[C@H](NC(=O)[C@@H](CSC)NC(=O)c1cc(Cl)ccc1Cl)C(=O)N[C@@H](Cc1ccccc1)C(=O)[C@@]1(C)CO1 [Compound 39, N-2,5-dichlorophenyl-2-formyl-S-methyl-L-cysteinyl-O-methyl-L-seryl-L-phenylalanyl-methyloxirane] | 51.2 to 52.7 °C | –
9 | COC[C@H](NC(=O)[C@@H](CSC)NC(=O)c1cnccn1)C(=O)N[C@@H](Cc1ccccc1)C(=O)[C@@]1(C)CO1 [Compound 41, N-pyrazinyl-2-formyl-S-methyl-L-cysteinyl-O-methyl-L-seryl-L-phenylalanyl-methyloxirane] | 49.7 to 51.2 °C | IC50 (RPMI8226): 55.3 nM; IC50 (U266B1): 160 nM
10 | CSC[C@@H](NC(=O)c1cc(Cl)ccc1Cl)C(=O)N[C@H](CSC)C(=O)N[C@@H](CC(C)C)C(=O)[C@@]1(C)CO1 [Compound 42, N-2,5-dichlorophenyl-2-formyl-S-methyl-L-cysteinyl-S-methyl-L-cysteinyl-L-leucyl-methyloxirane] | 163.1 to 164.5 °C | –
11 | CSC[C@@H](NC(=O)c1cnc(C)s1)C(=O)N[C@H](CSC)C(=O)N[C@@H](CC(C)C)C(=O)[C@@]1(C)CO1 [Compound 45, N-2-methylthiazolyl-5-formyl-S-methyl-L-cysteinyl-S-methyl-L-cysteinyl-L-leucyl-methyloxirane] | 150 to 151 °C | –
12 | CSC[C@@H](NC(=O)c1cc(Cl)ccc1Cl)C(=O)N[C@H](CSC)C(=O)N[C@@H](Cc1ccccc1)C(=O)[C@@]1(C)CO1 [Compound 46, N-2,5-dichlorophenyl-2-formyl-S-methyl-L-cysteinyl-S-methyl-L-cysteinyl-L-phenylalanyl-methyloxirane] | 150 to 151 °C | –
13 | CSC[C@@H](NC(=O)c1cc(C)on1)C(=O)N[C@H](CSC)C(=O)N[C@@H](Cc1ccccc1)C(=O)[C@@]1(C)CO1 [Compound 47, N-5-methylisoxazolyl-3-formyl-S-methyl-L-cysteinyl-S-methyl-L-cysteinyl-L-phenylalanyl-methyloxirane] | 149 to 150 °C | –
14 | CSC[C@@H](NC(=O)c1cnccn1)C(=O)N[C@H](CSC)C(=O)N[C@@H](Cc1ccccc1)C(=O)[C@@]1(C)CO1 [Compound 48, N-pyrazinyl-2-formyl-S-methyl-L-cysteinyl-S-methyl-L-cysteinyl-L-phenylalanyl-methyloxirane] | – | IC50 [1]: > 2000 nM
15 | CSC[C@@H](NC(=O)c1cnc(C)s1)C(=O)N[C@H](CSC)C(=O)N[C@@H](Cc1ccccc1)C(=O)[C@@]1(C)CO1 [Compound 49, N-2-methylthiazolyl-5-formyl-S-methyl-L-cysteinyl-S-methyl-L-cysteinyl-L-phenylalanyl-methyloxirane] | 73 to 74 °C | –
16 | COC[C@H](NC(=O)c1cc(C)on1)C(=O)NCC(=O)N[C@@H](CC(C)C)C(=O)[C@@]1(C)CO1 [Compound 50, N-5-methylisoxazolyl-3-formyl-O-methyl-L-seryl-glycyl-L-leucyl-methyloxirane] | 47.7 to 49.1 °C | IC50 [2, 4]: 10 nM; IC50 [2, 5]: 11 nM; IC50 at 24 h [3, 6]: > 2000 nM; IC50 at 24 h [3, 7]: > 2000 nM
17 | COC[C@H](NC(=O)c1cc(C)on1)C(=O)NCC(=O)N[C@@H](Cc1ccccc1)C(=O)[C@@]1(C)CO1 [Compound 51, N-5-methylisoxazolyl-3-formyl-O-methyl-L-seryl-glycyl-L-phenylalanyl-methyloxirane] | 54 to 55 °C | IC50 [2, 4]: 36 nM; IC50 [2, 5]: 52.6 nM
18 | COC[C@H](NC(=O)CNC(=O)c1cc(C)on1)C(=O)N[C@@H](CC(C)C)C(=O)[C@@]1(C)CO1 [Compound 52, N-5-methylisoxazolyl-3-formyl-glycyl-O-methyl-L-seryl-L-leucyl-methyloxirane] | – | IC50 (RPMI8226): > 100 nM
19 | CSC[C@@H](NC(=O)c1cc(C)on1)C(=O)NCC(=O)N[C@@H](CC(C)C)C(=O)[C@@]1(C)CO1 [Compound 54, N-5-methylisoxazolyl-3-formyl-S-methyl-L-cysteinyl-glycyl-L-leucyl-methyloxirane] | 58.4 to 59.8 °C | –
20 | CSC[C@@H](NC(=O)c1cnc(C)s1)C(=O)NCC(=O)N[C@@H](CC(C)C)C(=O)[C@@]1(C)CO1 [Compound 56, N-2-methylthiazolyl-5-formyl-S-methyl-L-cysteinyl-glycyl-L-leucyl-methyloxirane] | – | IC50 (RPMI8226): > 100 nM
21 | COC[C@H](NC(=O)c1cnc(C)s1)C(=O)N[C@@H](COC)C(=O)N[C@@H](Cc1ccccc1)C(=O)[C@@]1(C)CO1 [Oprozomib, reference compound] | – | IC50 [2, 4]: 53 nM; IC50 [2, 5]: 70.9 nM; IC50 at 24 h [3, 6]: 598 nM; IC50 at 24 h [3, 7]: 807 nM
